Laboratory results as given in article PMC6030159 (Scientific Reports, 2018).
Entries after “also recorded” stand apart in the source; their conditions may differ.

Legend:
lung tumor = test system: lung tumor; set-up: method as in PMID 23824742; conditions: cited from earlier work
BCL-XL [1] = test system: T1, BCL-XL; assay: MST binding to BCL-XL; conditions: 3 µM MYCMI-6, BCL-XL titrated up to 10 μM
T1 construct: purchased Abcam
Procedure: MST was carried out on a Monolith NT.115 with blue/green filters, kindly provided by Luca Jovine, Karolinska Institutet Huddinge, according to manufacturer's protocol (NanoTemper). […] Titration of molecules was carried out in 16 PCR tubes into which a fixed concentration of fluorescent molecule was added. The mixture was applied to capillaries (standard treated, NanoTemper), and scanned in the Monolith NT.115 to measure initial fluorescence of molecule. MST was induced and fluorescence was measured during 40 seconds. Double measurements were carried out (MST power of 20% and 40%, or 40% and 60%) for each sample. Delta fluorescence or relative fluorescence of fluorescent molecule normalized to control vehicle was plotted against titrated molecule concentration. The protein labeling kit GREEN-NHS (NanoTemper) was used to label primary amines of proteins according to manufacture's protocol. page 5: Supplementary Figure Legends Supplemental Figure S1. Schematic presentations of MYC and MAX protein constructs. […] The cells were reseeded and treated with vehicle or 25 μM of each compound, after which fluorescence was measured 24 hours post-treatment and the YFP/CFP ratio calculated and normalized to DMSO-treated cells. […] (12.5 μM) and analyzed as described in C). […]

YFP = assay: SPR binding to YFP; conditions: data not shown
BCL-XL [2] = test system: T1, BCL-XL; set-up: method as in PMID 23824742; conditions: in vitro fluorescence polarization, BCL-XL:BAK; cited from earlier work
MYC/MYCN target genes = assay: RT-qPCR of MYC/MYCN target genes in Kelly cells; assay type: cell-based; conditions: 2.5 μM, 24 hours
Procedure: These assays were performed essentially as described in[67],[68]. For further information on immunohistochemistry, and on primers and antibodies, see Supplementary Information.

MAX:MAX = assay: MST MAX:MAX; assay type: binding; conditions: labeled MAX pre-mixed with 1 µM unlabeled MAX
[3] = test system: T2, bovine serum albumin (BSA); assay: MST binding to BSA; conditions: BSA titrated
T2 construct: purchased NanoTemper (included in the MST kit)
Procedure: Titration of molecules was carried out in 16 PCR tubes into which a fixed concentration of fluorescent molecule was added. The mixture was applied to capillaries (standard treated, NanoTemper), and scanned in the Monolith NT.115 to measure initial fluorescence of molecule. MST was induced and fluorescence was measured during 40 seconds. Double measurements were carried out (MST power of 20% and 40%, or 40% and 60%) for each sample. Delta fluorescence or relative fluorescence of fluorescent molecule normalized to control vehicle was plotted against titrated molecule concentration. The protein labeling kit GREEN-NHS (NanoTemper) was used to label primary amines of proteins according to manufacture’s protocol.
Data are shown as mean ± standard deviation of 5 biological repeats.

CCOc1ccc2nc3cc(/N=N/c4ccc(N)nc4N)ccc3c(N)c2c1 [MYCMI-6]
lung tumor growth in mouse xenograft model (lung tumor): inhibit lung tumor growth | binding to BCL-XL (MST) (BCL-XL [1]): did not bind; also recorded: did not observe any binding | binding to YFP (SPR) (YFP): negligible | concentration of binding to BCL-XL (BCL-XL [2]): 14 nM | expression of MYC/MYCN target genes (MYC/MYCN target genes): significantly inhibited | effect on MAX:MAX (MST) (MAX:MAX): minor effects; also recorded: did not inhibit MAX:MAX homodimerization | binding to BSA (MST) [3]: did not bind
